Measured values: ChEMBL document CHEMBL5143706, “2-Alkyl substituted benzimidazoles as a new class of selective AT2 receptor ligands” (Bioorg Med Chem, 2022)

How the values were obtained:
[1] = target: T1, Type-2 angiotensin II receptor (Homo sapiens, UniProt P50052); assay: Displacement of [125-I]-[Sar1Ile8]-angiotensin II from human AT2R expressed in HEK293 cell membrane assessed as inhibition constant by radioligand binding assay; assay type: cell membranes
T1 sequence (P50052 whole entry): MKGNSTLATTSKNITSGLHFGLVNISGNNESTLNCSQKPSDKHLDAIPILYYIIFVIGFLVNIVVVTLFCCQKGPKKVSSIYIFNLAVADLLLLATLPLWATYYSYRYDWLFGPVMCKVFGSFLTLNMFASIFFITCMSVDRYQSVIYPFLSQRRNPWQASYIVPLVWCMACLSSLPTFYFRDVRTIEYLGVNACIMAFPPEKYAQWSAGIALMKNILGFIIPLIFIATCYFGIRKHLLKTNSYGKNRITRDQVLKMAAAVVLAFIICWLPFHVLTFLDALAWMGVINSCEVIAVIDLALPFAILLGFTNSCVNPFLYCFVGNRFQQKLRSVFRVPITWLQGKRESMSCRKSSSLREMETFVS

[2] = target: T2, Type-1 angiotensin II receptor (Homo sapiens, UniProt P30556); assay: Displacement of [125-I]-[Sar1Ile8]-angiotensin II from human AT1R expressed in HEK293 cell membrane assessed as inhibition constant by radioligand binding assay; assay type: cell membranes
T2 sequence (P30556 whole entry): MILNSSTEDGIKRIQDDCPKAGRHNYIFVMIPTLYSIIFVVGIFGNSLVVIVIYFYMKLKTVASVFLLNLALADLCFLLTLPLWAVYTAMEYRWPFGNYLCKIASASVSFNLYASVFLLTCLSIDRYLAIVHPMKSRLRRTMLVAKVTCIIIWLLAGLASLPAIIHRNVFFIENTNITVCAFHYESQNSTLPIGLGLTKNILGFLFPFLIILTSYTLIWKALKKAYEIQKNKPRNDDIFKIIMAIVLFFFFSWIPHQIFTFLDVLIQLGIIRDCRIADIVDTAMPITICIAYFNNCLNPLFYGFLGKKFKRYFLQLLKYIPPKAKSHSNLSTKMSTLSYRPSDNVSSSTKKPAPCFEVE

[3] = Metabolic stability in CD-1 mouse liver microsomes assessed as half life at 1 uM preincubated for 5 mins followed by NADPH addition and measured upto 60 mins by HPLC-MS/MS analysis; assay type: ADME, Microsome; conditions: time < 65 min
[4] = Metabolic stability in Sprague-Dawley rat liver microsomes assessed as half life at 1 uM preincubated for 5 mins followed by NADPH addition and measured upto 60 mins by HPLC-MS/MS analysis; assay type: ADME, Microsome
[5] = Metabolic stability in human liver microsomes assessed as half life at 1 uM preincubated for 5 mins followed by NADPH addition and measured upto 60 mins by HPLC-MS/MS analysis; assay type: ADME, Microsome; conditions: time < 65 min
Homo sapiens = species: Homo sapiens; assay: Selectivity index, ratio of Ki for displacement of [125-I]-[Sar1Ile8]-angiotensin II from human AT2R expressed in HEK293 cell membrane to Ki for displacement of [125-I]-[Sar1Ile8]-angiotensin II from human AT1R expressed in HEK293 cell membrane; assay type: cell membranes
[6] = Displacement of [125-I]-angiotensin II from AT2R in pig myometrial membrane assessed as inhibition constant incubated for 1.5 hrs by gamma counter analysis; assay type: cell membranes, Sus scrofa, Myometrium

Compound: CCCCOC(=O)NS(=O)(=O)c1ccc(CCC)cc1-c1ccc(Cn2c(-c3nccs3)nc3ccccc32)cc1
- Ki [1]: 5.1 nM
- Ki [2]: > 3000 nM
- half-life at 1 µM [3]: 5 min
- half-life at 1 µM [4]: 16 min
- half-life at 1 µM [5]: 21 min

Compound: CCCc1ccc(S(=O)(=O)NC(=O)OCCC(F)(F)C(F)(F)F)c(-c2ccc(Cn3c(C(C)(C)C)nc4ccccc43)cc2)c1
- Ki [1]: 6 nM
- Ki [2]: > 3000 nM

Compound: CCCCOC(=O)NS(=O)(=O)c1ccc(CCC)cc1-c1ccc(Cn2c(C34CC5CC(CC(C5)C3)C4)nc3ccccc32)cc1
- Ki [1]: 460 nM
- Ki [2]: > 3000 nM

Compound: CCCCOC(=O)NS(=O)(=O)c1ccc(CCC)cc1-c1ccc(Cn2c(C)nc3ccccc32)cc1
- Ki [1]: 9.4 nM
- Ki [2]: 620 nM
- half-life at 1 µM [3]: 4 min
- half-life at 1 µM [4]: 6 min
- half-life at 1 µM [5]: 10 min

Compound: CCCCOC(=O)NS(=O)(=O)c1ccc(CCC)cc1-c1ccc(Cn2c(Cc3ccccc3)nc3ccccc32)cc1
- Ki [1]: 15 nM
- Ki [2]: > 3000 nM

Compound: CCCCOC(=O)NS(=O)(=O)c1ccc(CCC)cc1-c1ccc(Cn2c(C3CCCCC3)nc3ccccc32)cc1
- Ki [1]: 130 nM
- Ki [2]: > 3000 nM

Compound: CCCCOC(=O)NS(=O)(=O)c1ccc(CCC)cc1-c1cc(F)c(Cn2c(C(C)(C)C)nc3ccccc32)c(F)c1
- Ki [1]: 11 nM
- Ki [2]: > 3000 nM

Compound: CCCCOC(=O)NS(=O)(=O)c1ccc(CCC)cc1-c1ccc(Cn2c(C(C)C)nc3ccccc32)cc1
- Ki [1]: 4 nM
- Ki [2]: 390 nM
- Ratio Ki (Homo sapiens): 100

Compound: CCCCOC(=O)NS(=O)(=O)c1ccc(CCC)cc1-c1ccc(Cn2c(CCCC)nc3ccccc32)cc1
- Ki [1]: 9.2 nM
- Ki [2]: 180 nM

Compound: CCCCOC(=O)NS(=O)(=O)c1ccc(CCC)cc1-c1ccc(Cn2c(C3CCCC3)nc3ccccc32)cc1
- Ki [1]: 35 nM
- Ki [2]: 410 nM
- Ratio Ki (Homo sapiens): 10

Compound: CCCCOC(=O)NS(=O)(=O)c1ccc(CCC)cc1-c1ccc(Cn2c(CC)nc3ccccc32)cc1
- Ki [1]: 11 nM
- Ki [2]: 710 nM

Compound: CCCCOC(=O)NS(=O)(=O)c1sc(CC(C)C)cc1-c1ccc(Cn2ccnc2)cc1 [BULOXIBUTID]
- Ki [6]: 0.4 nM

Compound: CCCCOC(=O)NS(=O)(=O)c1ccc(CCC)cc1-c1ccc(Cn2c(CC(C)C)nc3ccccc32)cc1
- Ki [1]: 19 nM
- Ki [2]: > 3000 nM

Compound: CCCCOC(=O)NS(=O)(=O)c1ccc(CCC)cc1-c1ccc(Cn2c(CCC)nc3ccccc32)cc1
- Ki [1]: 14 nM
- Ki [2]: 460 nM

Compound: CCCCOC(=O)NS(=O)(=O)c1ccc(CCC)cc1-c1ccc(Cn2c(-c3ccccc3)nc3ccccc32)cc1
- Ki [1]: 590 nM
- Ki [2]: > 1000 nM

Compound: CCCCOC(=O)NS(=O)(=O)c1ccc(CCC)cc1-c1ccc(Cn2c(C3CC3)nc3ccccc32)cc1
- Ki [1]: 31 nM
- Ki [2]: 710 nM

Compound: CCCCOC(=O)NS(=O)(=O)c1ccc(CCC)cc1-c1ccc(Cn2c(C(C)(C)C)nc3ccccc32)cc1
- Ki [1]: 5.3 nM
- Ki [2]: > 1000 nM
- half-life at 1 µM [3]: 7 min
- half-life at 1 µM [4]: 20 min
- half-life at 1 µM [5]: 12 min

Compound: CCCc1ccc(S(=O)(=O)NC(=O)OCCCC(F)(F)F)c(-c2cc(F)c(Cn3c(C(C)(C)C)nc4ccccc43)c(F)c2)c1
- Ki [1]: 12 nM
- Ki [2]: > 3000 nM
- half-life at 1 µM [3]: 6 min
- half-life at 1 µM [4]: 16 min
- half-life at 1 µM [5]: 15 min

Compound: CCCc1ccc(S(=O)(=O)NC(=O)OCCCC(F)(F)F)c(-c2ccc(Cn3c(C(C)(C)C)nc4ccccc43)cc2)c1
- Ki [1]: 4.5 nM
- Ki [2]: > 3000 nM
- half-life at 1 µM [3]: 6 min
- half-life at 1 µM [4]: 21 min
- half-life at 1 µM [5]: 20 min

Compound: CCCCOC(=O)NS(=O)(=O)c1ccc(CCC)cc1-c1ccc(Cn2c(C(F)(F)F)nc3ccccc32)cc1
- Ki [1]: 13 nM
- Ki [2]: > 1000 nM
- half-life at 1 µM [3]: 4 min
- half-life at 1 µM [4]: 7 min
- half-life at 1 µM [5]: 10 min

Compound: CCCCOC(=O)NS(=O)(=O)c1ccc(CCC)cc1-c1ccc(Cn2cnc3ccccc32)cc1
- Ki [1]: 29 nM
- Ki [2]: > 1000 nM
- half-life at 1 µM [3]: 5 min
- half-life at 1 µM [4]: 5 min
- half-life at 1 µM [5]: 10 min

Compound: CCCCOC(=O)NS(=O)(=O)c1ccc(CCC)cc1-c1ccc(Cn2c(C3CCC3)nc3ccccc32)cc1
- Ki [1]: 12 nM
- Ki [2]: 400 nM
